The record followed here is patent US6495569B1, “Imidazolidine compounds” (Millennium Pharmaceuticals, Inc., priority 2001, dated 2002).

This experiment addresses T1, CXCR3 (Homo sapiens, UniProt P49682).
T1 construct: expressed in transfected cells; membrane preparation
T1 sequence (P49682 1-368): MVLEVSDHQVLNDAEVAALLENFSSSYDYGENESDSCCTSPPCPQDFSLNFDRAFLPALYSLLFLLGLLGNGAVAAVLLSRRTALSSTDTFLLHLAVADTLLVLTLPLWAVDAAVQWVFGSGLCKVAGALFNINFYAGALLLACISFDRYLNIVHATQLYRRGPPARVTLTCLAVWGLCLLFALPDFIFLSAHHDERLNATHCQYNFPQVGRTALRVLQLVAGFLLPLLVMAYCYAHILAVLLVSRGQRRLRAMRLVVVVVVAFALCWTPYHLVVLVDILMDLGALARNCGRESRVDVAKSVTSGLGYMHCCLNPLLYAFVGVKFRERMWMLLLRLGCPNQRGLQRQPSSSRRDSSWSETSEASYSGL
The experiment is described as follows: CXCR3/IP-10 radioligand binding assay (125I-IP-10 competition on CXCR3.L1/2 cell membranes). Particulars: test compound 10 μmol/L; 125I-labeled IP-10 0.05 to 0.2 nmol/L; CXCR3.L1/2 transfectant cell membranes; 60 min at room temperature. An excerpt: The activity of the compounds of the present invention can be assessed using a suitable assay, such as a receptor binding assay, a chemotaxis assays, an extracellular acidification assay or a calcium flux assay (see, for example, Hesselgesser et al., J. Biol. Chem. 273(25):15687-15692 (1998) and WO 98/02151). For example, as described herein, small organic molecule antagonists of CXCR3/IP-10 binding have been identified utilizing cells engineered to express recombinant human CXCR3 (CXCR3.L1/2) and which bind ^125I-IP10 and chemotax in response to IP-10, Mig or I-TAC. Specifically, a high through-put receptor binding assay, which monitors ^125I-IP10 binding to CXCR3.L1/2 cell membranes, was used to identify small molecule antagonists which block binding of IP-10, Mig or I-TAC to CXCR3.
CXCR3.L1/2 cells were pelleted by centrifugation and stored at −80° C.. The cells were lysed by thawing and resuspending at about 1.5×10^7 cells/ml in a hypotonic buffer (5 mmol/L HEPES (pH 7.2), 2 mmol/L EDTA, 10 μg/ml each leupeptin, aprotinin, and chymostatin, and 100 μg/ml PMSF (all from Sigma, St. Louis)). Nuclei and cellular debris was removed by centrifugation ([…], at 4° C.) for 10 min. The supernatant was transferred to chilled centrifuge tubes (Nalge, Rochester, N.Y.) and the membrane fraction was recovered by centrifugation (25,000 g at 4° C.) for 45 min. The membrane pellet was resuspended in freezing buffer (10 mM HEPES (pH 7.2), 300 mmol/L Sucrose, 5 μg/ml each of leupeptin, aprotinin, and chymostatin, and 10 μg/ml PMSF). The total protein concentration was determined using a coomassie blue staining protein concentration assay kit (BioRad). The membrane preparation was aliquoted and stored at −80° C. until time of use.
CXCR3/IP-10 binding was performed in 96-well polypropylene plates (Costar) in a final volume of 0.1 ml of HBB buffer (50 mmol/L Hepes pH 7.4, 1 mmol/L CaCl2, 5 mmol/L MgCl2, 0.02% sodium azide, 0.5% BSA (bovine serum albumin)) containing 1 to 5 μg of CXCR3.L1/2 transfectant cell membrane protein and 0.05 to 0.2 nmol/L ^125I-labeled IP-10 (NEN, Boston, Mass.). Competition binding experiments were performed by including variable concentrations of unlabeled IP-10 or test compound. Nonspecific binding was determined following the addition of a 250 nmol/L unlabelled IP-10. Samples were incubated for 60 min at room temperature, and bound and free tracer (^125I-IP10) were separated by filtration through 96-well GF/B filterplates (Packard) presoaked in 0.3% polyethyleneimine. The filters were washed in HBB further supplemented with 0.5 mol/L NaCl, dried, and the amount of bound radioactivity determined by liquid scintillation counting. The competition is presented as the percent specific binding as calculated by 100×[(S−B)/(T−B)], where S is the radioactivity bound for each sample, B is background binding, and T is total bound in the absence of competitors. Duplicates were used throughout the experiments.
In general, % inhibition refers to the drop in the measured response relative to a control, in per cent. On to “1-{2-(3-Piperidinomethylbenzylthio)ethyl}-3-(1-acenaphthenyl)-2imidazolidinylidenepropanedinitrile [Compound 4]”, for which the “% inhibition at 10 μmol/L” value was 95%.
To `N#CC(C#N)=C1N(CCSCc2cccc(CN3CCCCC3)c2)CCN1Cc1cccc2ccccc12` [Compound 1, 1-{2-(3-Piperidinomethylbenzylthio)ethyl}-3-(1-naphthylmethyl)-2-imidazolidinylidenepropanedinitrile] belongs 108%; to `Cc1cccc(CN2CCN(CCSCc3cccc(CN4CCCCC4)c3)C2=C(C#N)C#N)c1C` [Compound 3, 1-{2-(3-Piperidinomethylbenzylthio)ethyl}-3-(2,3-dimethylbenzyl)-2-imidazolidinylidenepropanedinitrile], 91%; to `N#CC(C#N)=C1N(CCCc2ccccc2)CCN1CCSCc1cccc(CN2CCCCC2)c1` [Compound 10, 1-{2-(3-Piperidinomethylbenzylthio)ethyl}-3-(3-phenylpropyl)-2-imidazolidinylidenepropanedinitrile], 86%.
Turning to “1-{2-(3-Piperidinomethylbenzylthio)ethyl}-3-(2,3-methylenedioxybenzyl)-2-imidazolidinylidenepropanedinitrile [Compound 6]”, the “% inhibition at 10 μmol/L” value is on record as 84%.
Regarding “1-{2-(3-Piperidinomethylbenzylthio)ethyl}-3-{1-(8-methylnaphthyl)methyl}-2-imidazolidinylidenepropanedinitrile [Compound 11]”, the “% inhibition at 10 μmol/L” value is reported as 96%.
To “1-{2-(3-Piperidinomethylbenzylthio)ethyl}-3-(1-naphthoyl)-2-imidazolidinylidenepropanedinitrile [Compound 7]” belongs 93%.
For the molecule `N#CC(C#N)=C1N(CCSCc2ccc(CN3CCCCC3)cc2)CCN1Cc1cccc2ccccc12` [Compound 2, 1-{2-(4-Piperidinomethylbenzylthio)ethyl}-3-(1-naphthylmethyl)-2-imidazolidinylidenepropanedinitrile], the “% inhibition at 10 μmol/L” value was 94%.
